Columns and labels:
[1] = Selectivity index, ratio of IC50 for rat L6 cells to IC50 for Trypanosoma cruzi Tulahuen strain C2C4 amastigote forms harboring LacZ infected in rat L6 cells; format: toxicity, cell-based; conditions: read-out: Ratio IC50
[2] = system: Trypanosoma brucei rhodesiense; assay: Antitrypanosomal activity against bloodstream forms of Trypanosoma brucei rhodesiense STIB900 trypomastigotes after 72 hrs by alamar blue assay; format: functional; conditions: STIB900, 72 h
[3] = Selectivity index, ratio of IC50 for rat L6 cells to IC50 for bloodstream forms of Trypanosoma brucei rhodesiense STIB900 trypomastigotes; format: toxicity; conditions: read-out: Ratio IC50
Leishmania donovani = assay: Antileishmanial activity against Leishmania donovani MHOM/SD/62/ISCL2D axenic amastigotes after 72 hrs by alamar blue assay; format: functional
[4] = Selectivity index, ratio of IC50 for rat L6 cells to IC50 for Leishmania donovani MHOM/SD/62/ISCL2D axenic amastigotes; format: toxicity; conditions: read-out: Ratio IC50
Trypanosoma cruzi = assay: Antitrypanosomal activity against Trypanosoma cruzi Tulahuen strain C2C4 amastigote forms harboring LacZ infected in rat L6 cells after 96 hrs by CPRG/Nonidet reagent based photometric method; format: functional, cell-based; conditions: Tulahuen strain C2C4, L6, 96 h
[5] = Selectivity index, ratio of IC50 for rat L6 cells to IC50 for chloroquine resistant Plasmodium falciparum K1 erythrocytic stage; format: toxicity; conditions: read-out: Ratio IC50
L6 = assay: Cytotoxicity against rat L6 cells assessed as growth inhibition after 72 hrs by alamar blue assay; format: cell-based; conditions: L6, 72 h
Plasmodium falciparum = assay: Antiplasmodial activity against chloroquine resistant Plasmodium falciparum K1 erythrocytic stage assessed as reduction in [3H]hypoxanthine incorporation after 48 hrs by liquid scintillation counting assay; format: functional

| Structure (SMILES) | selectivity ratio [1] | IC50 [2] | selectivity ratio [3] | IC50 (Leishmania donovani) | selectivity ratio [4] | IC50 (Trypanosoma cruzi) | selectivity ratio [5] | IC50 (L6) | IC50 (Plasmodium falciparum) |
| --- | --- | --- | --- | --- | --- | --- | --- | --- | --- |
| CSC[C@H]1O[C@@H](n2cnc3c(N)nc(I)nc32)[C@H](O)[C@@H]1O | 2 | 5 µM | 27 | 132 µM | 1 | 88 µM |  |  |  |
| C[C@H]1O[C@@H](n2cnc3c(N)nc(Cl)nc32)[C@H](O)[C@@H]1O | 0.8 | 84 µM | 2 | 49 µM | 3 | 189 µM |  |  |  |
| CNc1ncnc2c1ncn2[C@@H]1O[C@H](C)[C@@H](O)[C@H]1O | 1 | 206 µM | 1 | > 380 µM | < 0.7 | 195 µM |  |  |  |
| CNc1nc(C#N)nc2c1ncn2[C@@H]1O[C@H](C)[C@@H](O)[C@H]1O | 2 | 111 µM | 0.8 | 148 µM | 0.6 | 45 µM |  |  |  |
| C[C@H]1O[C@@H](n2cnc3c(N)nc(NN)nc32)[C@H](O)[C@@H]1O | 1 | 132 µM | 1 | 73 µM | 3 | 147 µM |  |  |  |
| C[C@H]1O[C@@H](n2cnc3c(N)nc(F)nc32)[C@H](O)[C@@H]1O | 0.3 | 65 µM | < 0.1 | 0.88 µM | 2 | 7.1 µM |  |  |  |
| C[C@H]1O[C@@H](n2cnc3c(N)nc(N=[N+]=[N-])nc32)[C@H](O)[C@@H]1O | 1 | 137 µM | 1 | 125 µM | 2 | 167 µM |  |  |  |
| CNc1nc(I)nc2c1ncn2[C@@H]1O[C@H](C)[C@@H](O)[C@H]1O | 1 | 49 µM | 3 | 199 µM | 0.7 | 126 µM |  |  |  |
| C[C@H]1O[C@@H](n2cnc3c(N)nc(N)nc32)[C@H](O)[C@@H]1O | < 1 | 224 µM | 2 | 51 µM | 7 | > 340 µM |  |  |  |
| CNc1nc(F)nc2c1ncn2[C@@H]1O[C@H](C)[C@@H](O)[C@H]1O | 12 | 194 µM | 1 | > 353 µM | 0.7 | 20 µM |  |  |  |
| C[C@H]1O[C@@H](n2cnc3c(N)nc(I)nc32)[C@H](O)[C@@H]1O | 0.9 | 27 µM | 4 | 208 µM | 0.5 | 120 µM |  |  |  |
| C[C@H]1O[C@@H](n2cnc3c(N)nc(C#N)nc32)[C@H](O)[C@@H]1O | 1 | 79 µM | 2 | 100 µM | 2 | 144 µM |  |  |  |
| CC(=O)O[C@@H]1[C@H](OC(C)=O)[C@@H](C[S+](C)[O-])O[C@H]1n1cnc2c(N)nc(Cl)nc21 (some centres not stated) | 2 | 106 µM | 2 | > 230 µM | < 0.7 | 106 µM | 2 | 168 µM | 106 µM |
| CNc1ncnc2c1ncn2[C@@H]1O[C@H](CSC)[C@@H](O)[C@H]1O | 0.8 | 16 µM | 10 | > 320 µM | < 0.5 | 191 µM |  |  |  |
| CSC[C@H]1O[C@@H](n2cnc3c(/N=C/N(C)C)nc(F)nc32)[C@H](O)[C@@H]1O | < 0.1 | 62 µM | < 0.1 | 2.5 µM | 0.6 | 114 µM |  |  |  |
| CSC[C@H]1O[C@@H](n2cnc3c(N)nc(C#N)nc32)[C@H](O)[C@@H]1O | 1 | 66 µM | 2 | 266 µM | 0.6 | 150 µM |  |  |  |
| CC(=O)O[C@@H]1[C@H](OC(C)=O)[C@@H](CN=[N+]=[N-])O[C@H]1n1cnc2c(N)nc(F)nc21 | 0.5 | 23 µM | 0.8 | 33 µM | 0.5 | 39 µM | 12 | 18 µM | 1.5 µM |
| C[S+]([O-])C[C@H]1O[C@@H](n2cnc3c(N)nc(Cl)nc32)[C@H](O)[C@@H]1O (some centres not stated) | < 1 | 75 µM | 3 | > 260 µM | < 1 | > 260 µM | 18 | 259 µM | 14 µM |

| Structure (SMILES) | selectivity ratio [1] | IC50 [2] | selectivity ratio [3] | IC50 (Leishmania donovani) | selectivity ratio [4] | IC50 (Trypanosoma cruzi) | selectivity ratio [5] | IC50 (L6) | IC50 (Plasmodium falciparum) |
| --- | --- | --- | --- | --- | --- | --- | --- | --- | --- |
| CC(=O)O[C@@H]1[C@H](OC(C)=O)[C@@H](CN=[N+]=[N-])O[C@H]1n1cnc2c(N)nc(Cl)nc21 | 2 | 64 µM | 2 | 114 µM | 1 | 93 µM | 11 | 141 µM | 13 µM |
| CSC[C@H]1O[C@@H](n2cnc3c(N)nc(Cl)nc32)[C@H](OC(C)=O)[C@@H]1OC(C)=O | 1 | 31 µM | 7 | 39 µM | 6 | 161 µM | 18 | 216 µM | 12 µM |
| CNc1nc(I)nc2c1ncn2[C@@H]1O[C@H](CSC)[C@@H](O)[C@H]1O | 1 | 21 µM | 6 | 101 µM | 1 | 104 µM |  |  |  |
| CS(=O)(=O)C[C@H]1O[C@@H](n2cnc3c(N)nc(Cl)nc32)[C@H](O)[C@@H]1O | 1 | 126 µM | 1 | > 275 µM | < 0.6 | 156 µM | 6 | 156 µM | 25 µM |
| CSC[C@H]1O[C@@H](n2cnc3c(N)nc(F)nc32)[C@H](O)[C@@H]1O | 0.2 | 4.3 µM | 0.1 | 0.8 µM | 0.7 | 2.6 µM |  |  |  |
| CSC[C@H]1O[C@@H](n2cnc3c(N(C)N=O)nc(F)nc32)[C@H](O)[C@@H]1O | 0.9 | 56 µM | 2 | 190 µM | 0.6 | 129 µM |  |  |  |
| CS(=O)(=O)C[C@H]1O[C@@H](n2cnc3c(N)nc(F)nc32)[C@H](O)[C@@H]1O | 0.1 | 17 µM | 0.3 | 37 µM | 0.1 | 35 µM | 0.6 | 5 µM | 8 µM |
| CSC[C@H]1O[C@@H](n2cnc3c(N)nc(F)nc32)[C@H](OC(C)=O)[C@@H]1OC(C)=O | 1 | 26 µM | 0.6 | 18 µM | 0.8 | 15 µM | 5 | 15 µM | 2.8 µM |
| C[S+]([O-])C[C@H]1O[C@@H](n2cnc3c(N)nc(F)nc32)[C@H](O)[C@@H]1O (some centres not stated) | 0.2 | 34 µM | 0.4 | 33 µM | 0.4 | 74 µM | 2 | 13 µM | 5.8 µM |
| CSC[C@H]1O[C@@H](n2cnc3c(N)nc(N=[N+]=[N-])nc32)[C@H](O)[C@@H]1O | 2 | 51 µM | 5 | 288 µM | 0.8 | 144 µM |  |  |  |
| CNc1nc(C#N)nc2c1ncn2[C@@H]1O[C@H](CSC)[C@@H](O)[C@H]1O | 1 | 30 µM | 0.8 | 22 µM | 1 | 25 µM |  |  |  |
| CC(=O)O[C@@H]1[C@H](OC(C)=O)[C@@H](CS(C)(=O)=O)O[C@H]1n1cnc2c(N)nc(Cl)nc21 | < 0.6 | 14 µM | 8 | > 200 µM | < 0.6 | > 200 µM | 11 | 114 µM | 10 µM |
| CSC[C@H]1O[C@@H](n2cnc3c(N)nc(Cl)nc32)[C@H](O)[C@@H]1O | < 1 | 203 µM | 1 | 60 µM | 5 | > 270 µM |  |  |  |
| CSC[C@H]1O[C@@H](n2cnc3c(N)nc(NN)nc32)[C@H](O)[C@@H]1O | 1 | 149 µM | 1 | 173 µM | 1 | 157 µM |  |  |  |
| O=C(Cn1ccnc1[N+](=O)[O-])NCc1ccccc1 [BENZNIDAZOLE] |  |  |  |  |  | 1.64 µM |  | > 385 µM |  |
| CCN(CC)CCCC(C)Nc1ccnc2cc(Cl)ccc12 (configuration not stated) [CHLOROQUINE] |  |  |  |  |  |  |  | 91 µM |  |
| CCCCCCCCCCCCCCCCOP(=O)([O-])OCC[N+](C)(C)C [MILTEFOSINE] |  |  |  | 0.3 µM |  |  |  | 137 µM |  |

— ChEMBL document CHEMBL3997846, “Synthesis and activity of nucleoside-based antiprotozoan compounds” (Bioorg Med Chem, 2017)
